Ten molecules from publication PMC12363179, “Mapping the sialic acid-binding sites of LuIII and H-1 parvovirus” (Journal of Virology, 2025) can be followed below.

The target in assay [1] is H-1 parvovirus virus-like particle (VLP) composed of VP2, the major capsid protein (H-1 parvovirus). Put plainly: cryo-EM structure; VLPs of VP2 in 10 mM Tris-HCl, 500 mM NaCl, 8 mM CaCl2, 2 mM MgCl2, pH 7.5, with or without glycan (s(LN)3 or s(Le^x)2); icosahedral reconstruction in cisTEM, 60mer models fitted.
Assay [2] concerns the target T1, LuIII VLP (VP2) (LuIII virus, UniProt P36310).
T1 construct: VP2-only virus-like particle without DNA, T=1 icosahedral 60-mer, baculovirus/Sf9; residues 37-587 modelled
Kind of assay: CFG glycan microarray v4.[…], antibody fluorescence. The class given is binding. The note with it: immobilised glycan; unlabelled VLP 0.2 mg/mL, PBS, room temperature, 1 h.

Assay [3] deals with T1, LuIII VLP (VP2). Put plainly: Max-Planck glycan microarray, fluorescence. The class given is binding. The note with it: immobilised glycan; DyLight488-labelled VLP 0.1 mg/mL, PBS-MK (MgCl2, KCl), 4 °C overnight. The text has this:
Max-Planck glycan microarray, fluorescence on LuIII VLP (VP2)

The next assay addresses T2, MVM / MVMp VLP (VP2) (Murine minute virus strain MVM prototype, UniProt P03137).
T2 construct: VP2-only virus-like particle without DNA, T=1 icosahedral 60-mer, baculovirus/Sf9; DyLight488-labelled
Put plainly: Max-Planck glycan microarray, fluorescence. The following applies: immobilised glycan; DyLight488-labelled VLP 0.4 mg/mL, PBS-MK (MgCl2, KCl), 4 °C overnight. The class given is binding. The text has this:
Max-Planck glycan microarray, fluorescence on MVM / MVMp VLP (VP2)

The target of assay [4] is LuIII virus-like particle (VLP) composed of VP2, the major capsid protein (parvovirus LuIII). Put plainly: cryo-EM structure; VLPs of VP2 in 10 mM Tris-HCl, 500 mM NaCl, 8 mM CaCl2, 2 mM MgCl2, pH 7.5, with or without glycan (s(LN)3 or s(Le^x)2); icosahedral reconstruction in cisTEM, 60mer models fitted.

“H-1 parvovirus virus-like particle (VLP) composed of VP2, the major capsid protein (natural protein)”: the stoichiometry N in assay [1] came to 60.

Take `CC(=O)N[C@H]1[C@H](O[C@H]2[C@@H](O)[C@@H](CO)O[C@@H](O[C@H]3[C@H](O)[C@@H](O)[C@H](OCCCN)O[C@@H]3CO)[C@@H]2O)O[C@H](CO)[C@@H](O)[C@@H]1O[C@@H]1O[C@H](CO)[C@H](O)[C@H](O)[C@H]1O[C@@H]1O[C@@H](C)[C@@H](O)[C@@H](O)[C@@H]1O` [compound 65, Fucα1-2Galβ1-3GlcNAcβ1-3Galβ1-4Glcβ-Sp8]: the RFU at LuIII VLP (VP2) [2] was determined as 601 ± 93 RFU.

In turn, “Fucα1-3(Neu5Acα2-3Gαlβ1-4)GlcNAcβ1-3Gαlβ1-4Glcβ-AH [compound 7]” came in with an RFU on LuIII VLP (VP2) [3] of 151 ± 23 RFU.

The molecule `CC(=O)N[C@H]1[C@H](O[C@H]2[C@@H](O)[C@@H](CO)O[C@@H](O[C@H]3[C@H](O)[C@@H](CO)O[C@@H](OCCN)[C@@H]3NC(C)=O)[C@@H]2O)O[C@H](CO)[C@@H](O[C@@H]2O[C@H](CO)[C@H](O)[C@H](O[C@]3(C(=O)O)C[C@H](O)[C@@H](NC(C)=O)[C@H]([C@H](O)[C@H](O)CO)O3)[C@H]2O)[C@@H]1O` [compound 293, Neu5Acα2-3Galβ1-4GlcNAcβ1-3Galβ1-3GlcNAcβ-Sp0] displayed an RFU on LuIII VLP (VP2) [2] of 728 ± 180 RFU.

For the molecule `CC(=O)N[C@H]1[C@H](OCCCN)O[C@H](CO)[C@@H](O[C@@H]2O[C@H](CO)[C@H](O)[C@H](O[C@]3(C(=O)O)C[C@H](O)[C@@H](NC(C)=O)[C@H]([C@H](O)[C@H](O)CO)O3)[C@H]2O)[C@@H]1O[C@@H]1O[C@@H](C)[C@@H](O)[C@@H](O)[C@@H]1O` [compound 253, Neu5Acα2-3Galβ1-4(Fucα1-3)GlcNAcβ-Sp8], the RFU on LuIII VLP (VP2) [2] is listed as 1,685 ± 423 RFU.

Turning to “Neu5Acα2-3Gαlβ1-4GlcNAcβ1-3Gαlβ1-4Glcβ-AH [compound 6]”, the RFU on LuIII VLP (VP2) [3] is listed as 106 ± 37 RFU; on MVM / MVMp VLP (VP2) it was 153 ± 24 RFU.

Consider “Neu5Acα2-6Gαlβ1-4GlcNAc-6-sulfαteβ-AH [compound 10]”, for which the RFU at MVM / MVMp VLP (VP2) is recorded as 203 ± 36 RFU.

Turning to Neu5Acα2-3Gαlβ1-4Glcβ-AH [compound 9], the results for the RFU on LuIII VLP (VP2) [3] and at MVM / MVMp VLP (VP2) were 267 ± 44 RFU and 109 ± 102 RFU, respectively.

In turn, Neu5Acα2-6Gαlβ1-4Glcβ-AH [compound 8] came in with an RFU on LuIII VLP (VP2) [3] of 105 ± 13 RFU.

Take “LuIII virus-like particle (VLP) composed of VP2, the major capsid protein (natural protein)”: in assay [4], the stoichiometry N worked out at 60.

For orientation: stoichiometry N means a count of units in the complex or per binding partner.
